Laboratory results reported in patent US4885361A, “Sulfated oligosaccharides” (Hoffmann-La Roche Inc., priority 1987, dated 1989).

Assays:
[1] = system: Swiss 3T3 mouse fibroblastoid cells; test: anti-proliferative activity, Swiss 3T3 cells; assay type: cell-based; conditions: net proliferation, cells collected on the 4th day, 10% calf serum
Protocol: (§1) Cells of different origin (Swiss 3T3 mouse fibroblastoid cells, HSMC: human smooth muscle cells and endothelial cells, both isolated from human umbilical cord veins) in RPMI 1640 medium containing 10% calf serum (Swiss 3T3 cells), 15% fetal calf serum (HSMC) or 15% fetal calf serum plus 300 μg/ml of endothelial cell growth supplement (endothelial cells) were cultivated at 37° C. in water-saturated air/5% Co2. Confluent cultures were then washed once with HBSS, removed with 0.05% trypsin/0.02%EDTA and collected by centrifugation. The cells were applied to cell culture plates with a density of 5000 cells/culture and the test compound was added one hour later. The cells were then incubated at 37° C. in air/5% CO2 and collected on the 4th day (Swiss 3T3) and on the 7th day (HSMC and endothelial cells). In order to determine th number of cells, these were washed once with HBSS and adhering cells were incubated for 10 minutes at 37° C. with 0.5 ml of trypsin/EDTA solution for separation. 0.5 ml of formol solution (0.5% paraformaldehyde, 0.145M NaCl, 1.3 mM EDTA) was added to each culture in order to fix the cells. […] The number of cells was determined with a Coulter counter. The inhibitory action by the test compounds was determined as follows: [formula] with the net proliferation being the number of cells at the end of the test minus the number of cells on day 1 (=24 hour after inoculation). […]

[2] = system: Factor Xa; test: anti-Xa Clotting Assay; assay type: biochemical; conditions: concentration which leads to a coagulation time double the control value; citrated plasma, 37° C.
Protocol: anti-Xa Clotting Assay: 25 μl of citrated plasma having various concentrations of test compound are mixed with 75 μl of Factor Xa (the activated blood coagulation factor X) diluted 1:100 with 0.63% citrated buffer (pH 7.3) which contains 41 mM imidazole, 82 mM NaCl and 0.1% albumin. After warming to 37° C. for 2 minutes 200 μl of a 1:1 mixture of Factor X Deficient Plasma and Platelet Substitute are added and the mixture is incubated at 37° C. for 20 seconds. After the addition of 100 μl of prewarmed 50 mM calcium chloride solution the coagulation time is measured in a Fibrometer.
(§2) The activity of the test compound is given as the IC50 which is the concentration [μg/ml] which leads to a coagulation time which is double the control value.

[3] = system: HSMC: human smooth muscle cells; test: anti-proliferative activity, human smooth muscle cells; assay type: cell-based; conditions: net proliferation, cells collected on the 7th day, 15% fetal calf serum
Protocol: as §1

[4] = system: Factor Xa; test: Inhibition of Factor Xa in the Chromogenic Substrate Assay; assay type: biochemical; conditions: Factor Xa 2.8 nkat/ml, Bz-CO-Ile-Glu-Arg-NH.pNA
[5] = system: thrombin (IIa); test: Inhibition of Thrombin in the Chromogenic Substrate Assay; assay type: biochemical; conditions: amidolytic activity of thrombin reduced by 50% vs plasma control; anti-thrombin III, pH 8.4
Protocol: Inhibition of Thrombin or Factor Xa in the Chromogenic Substrate Assay (Teien et al., Thrombosis Research 10, 399-410 (1977)): The determination was effected in a Cobas-Bio centrifugal automatic spectrophotometer. The buffer solution used consisted of 50 mM Tris buffer, 180 mM NaCl, 7.5 mM EDTA Na2, 1% PEG 6000 (a polyethylene glycol of mol. weight 6000) and 0.02% Tween 80 (a polyoxyethylene sorbitanmonooleate), pH 8.4. The test solution consisted of 50 μl of buffer, 30 μl of anti-thrombin III (1 U/ml), and 20 μl of plasma which contained various concentrations of test compounds. 30 μl of sample solution and 20 μl of water with 180 μl of thrombin were added to the test cuvette in the automatic analyzer. After incubation at 37° C. for 240 seconds 60 μl of the p-nitranilide, H-D-Phe-Pip-Arg-NH.pNA, (0.75 mM in water) and 20 μl of water were added. The liberation of pNA (p-nitroaniline) was followed during 60 seconds at 405 nm in 10 second intervals in comparison to water as the blank. The inhibitory activity is given as the IC50 which is the concentration [μg/ml] at which the amidolytic activity of thrombin is reduced by 50% in comparison to the plasma control value.

[6] = system: citrated human plasma (aPTT, coagulation); test: aPTT (activated partial thromboplastin time) Test; assay type: biochemical; conditions: concentration which leads to a coagulation time double the control value, 37° C.
Protocol: aPTT (activated partial thromboplastin time) Test (see Walenga et al., CRC Critical Reviews in Laboratory Sciences 22 (4) 361-389 (1986)): 100 μl of citrated human plasma, which contains various concentrations of test compound, is mixed at 37° C. for 8 minutes with 100μ of Activated Thrombofax (ellagic acid as contact activator and bovine cephalin as platelet lipid substitute). 100 μl of pre-warmed 25 mM calcium chloride solution are then added and the coagultion time is measured in a Fibrometer Coagulation Timer.
as §2

[7] = system: mouse; test: acute toxicity determination in the mouse; assay type: in vivo
Protocol: In an acute toxicity determination in the mouse the compound of Example 1 was still not lethal after the intravenous application of 500 mg/kg or after the subcutaneous application of 4000 mg/kg.

[8] = system: bloody lesions of the mucous membrane of the stomach; test: mucosa-protective properties (ethanol-induced stomach lesions); assay type: in vivo; conditions: 30 mg/kg oral, 30 minutes prior to ethanol, rat, vs control group
Protocol: The test procedure described hereinafter can be used to determine the mucosa-protective properties:
Oral administration of absolute ethanol to male rats in a dosage of 1 ml per rat leads within 1 hour to bloody lesions of the mucous membrane of the stomach. Various dosages of the substances to be tested (suspended in 0.125% carboxymethylcellulose) or the vehicle alone (control) are administered orally to the rats (1 ml per rat) 30 minutes prior to the treatment with ethanol. One hour after the administration of the ethanol the animals are killed, their stomachs are investigated for the presence of lesions and the number and the total extent of such lesions are determined.

Row | Substance | IC50 Swiss 3T3 [1] [µg/mL] | Coagulation inhibition IC50, Xa [2] [µg/mL] | IC50 HSCM [3] [µg/mL] | Chromogenic Substrate (amidolytic activity) IC50, Xa [4] [µg/mL] | Chromogenic Substrate (amidolytic activity) IC50, IIa [5] [µg/mL] | Coagulation inhibition IC50, aPTT [6] [µg/mL] | lethal dose (not lethal after), intravenous ([7]; intravenous) [mg/kg] | lethal dose (not lethal after), subcutaneous ([7]; subcutaneous) [mg/kg] | reduction of the number of lesions [8] [%]
1 | Heparin [reference compound] | 35 | 0.6 | 45 | 2.7 | 1.9 | 1.2 | – | – | –
2 | trestatin A sulfate sodium salt [Example 1] | 30 | > 30 | 20 | 550 | > 1000 | 7 | > 500 | > 4000 | 28
